Consider 2 compounds from US7132425B2, “5-substituted-six-membered heteroaromatic glucokinase activators” (Hoffmann-La Roche Inc., priority 2002, dated 2006).

Data set [1] relates to C57BL/6J mice. In words: Glucokinase activator in vivo screen (blood glucose after oral dosing). To be noted: oral gavage 50 mg/kg after two hour fast, readings 1, 2, 4 and 6 hours post dose, p≦0.05 for two consecutive assay time points. How it is done: Glucokinase Activator in vivo Screen Protocol: C57BL/6J mice are orally dosed via gavage with Glucokinase (GK) activator at 50 mg/kg body weight following a two hour fasting period. Blood glucose determinations are made five times during the six hour post-dose study period.
Mice (n=6) are weighed and fasted for a two hour period prior to oral treatment.

Take `CS(=O)(=O)c1ccc([C@@H](CC2CCCC2)C(=O)Nc2cnc(-c3cccs3)cn2)cc1Cl` [Example 76, 2(R)-(3-Chloro-4-methanesulfonyl-phenyl)-3-cyclopentyl-N-(5-thiophen-2-yl-pyrazin-2-yl)-propionamide]: the melting point was 97 to 99 °C. Also, in data set [1], the “decrease in blood glucose compared to vehicle” value is on record as “statistically significant (p≦0.05) decrease in blood glucose”.

`CS(=O)(=O)c1ccc([C@@H](CC2CCCC2)C(=O)Nc2cnc(-c3ccoc3)cn2)cc1Cl` [Example 78, 2(R)-(3-Chloro-4-methanesulfonyl-phenyl)-3-cyclopentyl-N-(5-furan-3-yl-pyrazin-2-yl)-propionamide] showed a melting point of 97 to 101 °C. Moreover, in data set [1], the “decrease in blood glucose compared to vehicle” value is given as “statistically significant (p≦0.05) decrease in blood glucose”.

What is called melting point is the temperature, or range, at which the solid turns liquid.
